# According to patent US20090227619A1, “Harmine derivatives, intermediates used in their preparations, preparation processes and use therefo” (priority 2003, published 2009):
# Where two headings read alike, the source gives them in different places.
# Tests used:
# [1] = tested on: CT-DNA; assay: DNA thermal denaturation, determination of ΔTm; type: binding; conditions: 20 uM compound, Tm of CT-DNA alone 61° C.
# In short: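 CT-DNA at 15 ug/ml in PE buffer (1 mM Na2HPO4, 0.1 mM EDTA, pH 7.6), heated at 0.5° C./min from 25 to 95° C. Tm taken as hyperchromic transition mid-point; ΔTm = Tm of drug-DNA complex minus Tm of DNA alone, mean of three runs.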
# [2] = in vivo; conditions: both, mouse, ip
# [3] = tested on: S180 sarcoma; conditions: S180 sarcoma; for Body weight of the animals, beginning, First time / Body weight of the animals, end, First time / Inhibition rate, First time / Weight of the tumor X ± SD, First time / Body weight of the animals, beginning, Second time / Body weight of the animals, end, Second time / Inhibition rate, Second time: ip × 10qd; for Inhibition rate (%) S180 sarcomata: comparison table 43, in vivo
# [4] = tested on: PLA-801; assay: In vitro cytotoxicity, IC50 by MTT method, PLA-801; type: cell-based; conditions: PLA-801 cell strain; read-out: IC50 PLA-801
# In short: (§1)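 Cells in RPMI1640 with 10% FBS at 37° C, 5% CO2 were seeded at 10^5/ml and exposed to a compound concentration gradient for 48 h, at least three replicates, solvent controls.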
# [5] = tested on: HepG2; assay: In vitro cytotoxicity, IC50 by MTT method, HepG2; type: cell-based, human; conditions: Homo sapiens; HepG2 cell strain; read-out: IC50 HepG2
# In short: as §1
# [6] = tested on: Lewis lung cancer; conditions: Lewis lung cancer; for Body weight of the animals, end, First time / Body weight of the animals, end, Second time: ip × 10qd; for Inhibition rate (%) Lewis cancer: comparison table 43, in vivo;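 for all read-outs here: mice implanted subcutaneously in the axilla with Lewis lung tumor cells, treated starting the following day, killed roughly three weeks after implantation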
# Description: There was one group of 8 to 10 mice C57BL/6 and Kunming mice for the anti-tumor tests and two groups of mice for negative control.
# (3) Sources of tumors: Lewis lung cancer cells and S180 sarcoma in mice, which were sub-cultured and maintained by Pharmacological Center of Shanghai Pharmaceutical Industrial Research Institute.
# All samples were weighed and added a small amount of Tween-80 to facilitate dissolution during the experiment, and then 0.5% CMC-Na solution was gradually added to achieve the desired concentration. The volume for experiment was 0.5 ml/20 g mouse.
# The medicaments were intraperitoneally administered once a day continuously for 10 days.
# For the negative control group, a vehicle of the same volume was intraperitoneally administered once a day continuously for 10 days. For the positive control group, CTX was administered in the dosage of 30 mg/kg once a day continuously for 7 days.
# In vivo anti-tumor subcutaneous vaccination in the axilla was employed. Wildly grown tumor source was taken under sterile conditions to form a cell suspension of about 1×10^7 ml by homogenization method. For a corresponding mouse host, the suspension was injected in the axilla in an amount of 0.2 ml/mouse. The next day, the medicaments were administered according to the design of the tests. About three weeks later, all the groups of animals were executed. The tumors were taken from the animals and weighed. The inhibition rate of tumors was calculated according to the following formula:
# T: average tumor weight of treated group; C: average tumor weight of negative control group.
# [7] = tested on: Lovo; assay: In vitro cytotoxicity, IC50 by MTT method, Lovo; type: cell-based; conditions: Homo sapiens; Lovo cell strain; read-out: IC50 Lovo
# In short: as §1
# [8] = tested on: NIH3T3; assay: In vitro cytotoxicity, IC50 by MTT method, NIH3T3; type: cell-based; conditions: Mus musculus; NIH3T3 cell strain; read-out: IC50 NIH3T3
# In short: as §1
# [9] = tested on: Hela; assay: In vitro cytotoxicity, IC50 by MTT method, Hela; type: cell-based; conditions: Homo sapiens; Hela cell strain; read-out: IC50 Hela
# In short: as §1
# [10] = tested on: BGC-823; assay: In vitro cytotoxicity, IC50 by MTT method, BGC-823; type: cell-based; conditions: Homo sapiens, BGC-823; BGC823 cell strain; read-out: IC50 BGC823
# In short: as §1
# [11] = tested on: CT-DNA; assay: UV absorption spectrum method with CT-DNA; type: binding; conditions: CT-DNA 40 ug/ml, compound 20 uM, 37° C. for 2 h, OD at 260 nm
# Description: Compounds to be tested (20 uM) were added into the PE buffer solution, and its scan curve was identified by the spectrograph at a wavelength of from 200 to 400 nm. CT-DNA (40 ug/ml) and compounds to be tested (20 uM) were added into the PE buffer solution. The mixture was cultured at 37° C. for 2 h, and its scan curve was identified by the UV spectrograph at a wavelength of from 200 to 400 nm. […] After that, the OD value at 260 nm of the scan curve of the medicaments tested and that of the CT-DNA mixture OD value at 260 nm of the scan curve were calculated and compared to determine the influences of the medicaments tested on the UV absorption spectrum of the DNA molecules.
# [12] = tested on: Kunming mice; conditions: for Death rate: single i.p.
# [13] = tested on: Bel-7402; assay: In vitro cytotoxicity, IC50 by MTT method, Bel-7402; type: cell-based; conditions: Homo sapiens, Bel-7402; Bel7402 cell strain; read-out: IC50 Bel7402
# In short: as §1
# [14] = Solubility (physico-chemical data tables); conditions: qualitative; Table 12, 3,9-disubstituted β-carboline derivatives
# [15] = 50% male 50% female mice, 240 mg/kg
# [16] = 50% male 50% female mice, 300 mg/kg
# 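Throughout, for Death rate: acute toxicity in Kunming mice grouped by sex, one intraperitoneal dose at five graded levels in Tween-80 plus 0.5% CMC-Na, deaths monitored over two weeks.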
# 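Throughout, for LD50: acute toxicity in Kunming mice grouped by sex, one intraperitoneal dose at five graded levels in Tween-80 plus 0.5% CMC-Na, deaths monitored over two weeks.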
# 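Throughout, for MTD: acute toxicity in Kunming mice grouped by sex, one intraperitoneal dose at five graded levels in Tween-80 plus 0.5% CMC-Na, deaths monitored over two weeks.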
structure (smiles),measurement,setting,value
"CCCCn1c2ccccc2c2cc(C(=O)O)ncc21 [Compound 36, 9-butyl-β-carboline-3-carboxylic acid]",ΔTm,"[1]; CT-DNA 15 ug/ml, PE buffer pH 7.6",−1.5 °C
same,ΔTm,[1]; CT-DNA thermal denaturation,−1.5 °C
same,MTD at 2 weeks,[2],> 300 mg/kg
same,"Body weight of the animals, beginning, First time",[3]; Dosage 50 (mg/ml),19.1 g
same,"Body weight of the animals, end, First time",[3]; Dosage 50 (mg/ml),24.9 g
same,"Inhibition rate, First time",[3]; Dosage 50 (mg/ml),29.96%
same,"Weight of the tumor X ± SD, First time",[3]; Dosage 50 (mg/ml),1.87 ± 0.16 g
same,"Body weight of the animals, beginning, Second time",[3]; Dosage 50 (mg/ml),18.3 g
same,"Body weight of the animals, end, Second time",[3]; Dosage 50 (mg/ml),25.3 g
same,"Inhibition rate, Second time",[3]; Dosage 50 (mg/ml),31.11%
same,"Weight of the tumor X ± SD, Second time","[3]; Dosage 50, ip × 10qd",1.86 ± 0.28 g
same,"Body weight of the animals, beginning, First time",[3]; Dosage 100 (mg/ml),19.0 g
same,"Body weight of the animals, end, First time",[3]; Dosage 100 (mg/ml),24.5 g
same,"Inhibition rate, First time",[3]; Dosage 100 (mg/ml),43.07%
same,"Weight of the tumor X ± SD, First time",[3]; Dosage 100 (mg/ml),1.52 ± 0.15 g
same,"Body weight of the animals, beginning, Second time",[3]; Dosage 100 (mg/ml),18.7 g
same,"Body weight of the animals, end, Second time",[3]; Dosage 100 (mg/ml),25.5 g
same,"Inhibition rate, Second time",[3]; Dosage 100 (mg/ml),40.00%
same,"Weight of the tumor X ± SD, Second time","[3]; Dosage 100, ip × 10qd",1.62 ± 0.12 g
same,Inhibition rate (%) S180 sarcomata,[3],43.07%
same,IC50,[4],90 µM
same,IC50,[5],170 µM
same,"Body weight of the animals, end, First time",[6]; Dosage 50 (mg/ml),25.6 g
same,"Body weight of the animals, end, Second time",[6]; Dosage 50 (mg/ml),25.3 g
same,"Body weight of the animals, beginning, First time","[6]; Dosage 50, ip × 10qd",18.8 g
same,"Inhibition rate, First time","[6]; Dosage 50, ip × 10qd",31.74%
same,"Weight of the tumor X ± SD, First time","[6]; Dosage 50, ip × 10qd",2.00 ± 0.28 g
same,"Body weight of the animals, beginning, Second time","[6]; Dosage 50, ip × 10qd",20.1 g
same,"Inhibition rate, Second time","[6]; Dosage 50, ip × 10qd",31.69%
same,"Weight of the tumor X ± SD, Second time","[6]; Dosage 50, ip × 10qd",1.66 ± 0.17 g
same,"Body weight of the animals, end, First time",[6]; Dosage 100 (mg/ml),25.2 g
same,"Body weight of the animals, end, Second time",[6]; Dosage 100 (mg/ml),25.0 g
same,"Body weight of the animals, beginning, First time","[6]; Dosage 100, ip × 10qd",19.3 g
same,"Inhibition rate, First time","[6]; Dosage 100, ip × 10qd",41.98%
same,"Weight of the tumor X ± SD, First time","[6]; Dosage 100, ip × 10qd",1.70 ± 0.17 g
same,"Body weight of the animals, beginning, Second time","[6]; Dosage 100, ip × 10qd",20.1 g
same,"Inhibition rate, Second time","[6]; Dosage 100, ip × 10qd",46.91%
same,"Weight of the tumor X ± SD, Second time","[6]; Dosage 100, ip × 10qd",1.29 ± 0.13 g
same,Inhibition rate (%) Lewis cancer,[6],46.91%
same,IC50,[7],10 µM
same,IC50,[8],20 µM
same,IC50,[9],60 µM
same,IC50,[10],120 µM
same,Influence on the UV absorption of DNA,[11],increase the UV absorption of DNA
same,Death rate,[12]; [15],0
same,Death rate,[12]; [16],30
same,Death rate,"[12]; female mice, 240 mg/kg",0
same,Death rate,"[12]; female mice, 300 mg/kg",40
same,Death rate,"[12]; male mice, 240 mg/kg",0
same,Death rate,"[12]; male mice, 300 mg/kg",20
same,IC50,[13],90 µM
"O=C(O)c1cc2c3ccccc3n(Cc3ccccc3)c2cn1 [Compound 37, 9-benzyl-β-carboline-3-carboxylic acid]",Solubility,[14],soluble in DMSO
same,LD50 at 2 weeks,[2]; Kunming,163 mg/kg
same,"Body weight of the animals, beginning, First time",[3]; Dosage 25 (mg/ml),19.6 g
same,"Body weight of the animals, end, First time",[3]; Dosage 25 (mg/ml),26.9 g
same,"Inhibition rate, First time",[3]; Dosage 25 (mg/ml),23.86%
same,"Weight of the tumor X ± SD, First time",[3]; Dosage 25 (mg/ml),2.17 ± 0.18 g
same,"Body weight of the animals, beginning, Second time",[3]; Dosage 25 (mg/ml),20.4 g
same,"Body weight of the animals, end, Second time",[3]; Dosage 25 (mg/ml),25.1 g
same,"Inhibition rate, Second time",[3]; Dosage 25 (mg/ml),24.21%
same,"Weight of the tumor X ± SD, Second time","[3]; Dosage 25, ip × 10qd",2.16 ± 0.27 g
same,"Body weight of the animals, beginning, First time",[3]; Dosage 50 (mg/ml),19.7 g
same,"Body weight of the animals, end, First time",[3]; Dosage 50 (mg/ml),26.3 g
same,"Inhibition rate, First time",[3]; Dosage 50 (mg/ml),34.39%
same,"Weight of the tumor X ± SD, First time",[3]; Dosage 50 (mg/ml),1.87 ± 0.13 g
same,"Body weight of the animals, beginning, Second time",[3]; Dosage 50 (mg/ml),20.6 g
same,"Body weight of the animals, end, Second time",[3]; Dosage 50 (mg/ml),24.7 g
same,"Inhibition rate, Second time",[3]; Dosage 50 (mg/ml),32.98%
same,"Weight of the tumor X ± SD, Second time","[3]; Dosage 50, ip × 10qd",1.91 ± 0.23 g
same,Inhibition rate (%) S180 sarcomata,[3],34.39%
same,IC50,[4],100 µM
same,IC50,[5],100 µM
same,"Body weight of the animals, end, First time",[6]; Dosage 25 (mg/ml),24.1 g
same,"Body weight of the animals, end, Second time",[6]; Dosage 25 (mg/ml),24.9 g
same,"Body weight of the animals, beginning, First time","[6]; Dosage 25, ip × 10qd",18.6 g
same,"Inhibition rate, First time","[6]; Dosage 25, ip × 10qd",27.09%
same,"Weight of the tumor X ± SD, First time","[6]; Dosage 25, ip × 10qd",1.83 ± 0.17 g
same,"Body weight of the animals, beginning, Second time","[6]; Dosage 25, ip × 10qd",19.6 g
same,"Inhibition rate, Second time","[6]; Dosage 25, ip × 10qd",29.24%
same,"Weight of the tumor X ± SD, Second time","[6]; Dosage 25, ip × 10qd",1.67 ± 0.16 g
same,"Body weight of the animals, end, First time",[6]; Dosage 50 (mg/ml),23.9 g
same,"Body weight of the animals, end, Second time",[6]; Dosage 50 (mg/ml),24.3 g
same,"Body weight of the animals, beginning, First time","[6]; Dosage 50, ip × 10qd",18.9 g
same,"Inhibition rate, First time","[6]; Dosage 50, ip × 10qd",39.04%
same,"Weight of the tumor X ± SD, First time","[6]; Dosage 50, ip × 10qd",1.53 ± 0.14 g
same,"Body weight of the animals, beginning, Second time","[6]; Dosage 50, ip × 10qd",19.5 g
same,"Inhibition rate, Second time","[6]; Dosage 50, ip × 10qd",43.22%
same,"Weight of the tumor X ± SD, Second time","[6]; Dosage 50, ip × 10qd",1.34 ± 0.14 g
same,Inhibition rate (%) Lewis cancer,[6],43.22%
same,IC50,[7],40 µM
same,IC50,[8],50 µM
same,IC50,[9],90 µM
same,IC50,[10],50 µM
same,Influence on the UV absorption of DNA,[11],increase the UV absorption of DNA
same,Death rate,[12]; [15],100
same,Death rate,[12]; [16],100
same,Death rate,"[12]; female mice, 240 mg/kg",100
same,Death rate,"[12]; female mice, 300 mg/kg",100
same,Death rate,"[12]; male mice, 240 mg/kg",100
same,Death rate,"[12]; male mice, 300 mg/kg",100
same,LD50,"[12]; mouse, in vivo, ip",142 to 189 mg/kg
same,IC50,[13],110 µM
